{"source": "patent US8901317B2", "about": "“Tryptamine derivatives, their preparation and their use in gastropathy” (Council of Scientific & Industrial Research, priority 2010, dated 2014)", "key": {"[1]": {"system": "NSAIDs-induced mitochondrial oxidative stress", "test": "Mitochondrial oxidative stress in gastric mucosa (protein carbonyl, lipid peroxidation, total thiol)", "assay_type": "in vivo, rats", "conditions": "NSAIDs (indomethcin, diclofenac)-induced; pretreatment", "experimental": "Commercially available kit (Biochain) was used for the isolation of mitochondria from gastric mucosal cells. In brief, scrapped gastric mucosa was finely minced on ice in a petridish containing mitochondria extraction buffer. Ultra-Turrax T-25 homogenizer was used to homogenize the cells. To remove nuclei and unbroken cells the homogenate was first centrifuged at 800×g for 10 min and then finally subjected to 12000×g for 15 min to get the mitochondrial fraction.\nMitochondrial oxidative stress was performed earlier through measurement protein carbonyl formation, lipid peroxidation and measurement of total thiol content (Pal, C; et al. Free Radic Biol Med, 49(2), 258-267; 2010, Maity, P.; et al. J. Biol. Chem. 284:3058-3068; 2009, Maity, P.; et al. J. Biol. Chem. 283:14391-14401; 2008, Maity, P.; et al. J. Pineal Res. 46:314-323; 2009).\nMitochondrial oxidative stress was studied earlier through the measurement of mitochondrial total thiol depletion, lipid peroxidation and protein carbonyl formation. In brief, thiol content was measured by its reaction with 5-5′-dithionitrobenzoic acid (DTNB) to yield the yellow chromophore of TNB (thionitrobenzoic acid), which was measured at 412 nm Mitochondrial lipid peroxidation was assayed by adding 1 ml of the mitochondrial fraction in 0.9% normal saline to 2 ml of TBA-TCA mixture (0.375% w/v and 15% w/v, respectively) in 0.25 N HCl and was mixed and boiled for 15 min which was then cooled and after centrifugation, the absorbance of the supernatant was read at 535 nm. Tetraethoxypropane was used as standard. Protein carbonyl was measured by following the standard colorimetric method that measures the binding of dinitrophenylhydrazine (DNP) to the carbonyl group and was quantified by taking the absorbance at 362 nm."}, "[2]": {"system": "intra mitochondrial superoxide", "test": "Intra mitochondrial superoxide (MitoSOX)", "assay_type": "cell-based, rat", "conditions": "indomethacin-treated cultured gastric mucosal cells; pretreatment", "experimental": "Isolated mucosal cells from both control and indomethacin-treated cultured gastric mucosa were used for detection of intra mitochondrial superoxide using MitoSOX, an superoxide-sensitive fluorescence probe following the protocol as described in the product catalogue (Maity, P.; et al. J. Biol. Chem. 284:3058-3068; 2009). Cells were stained with the respective fluorescent probe in HB SS (pH 7.4) and incubated for 15 min at 37° C. in the dark as described in the manufacture's protocols. After the incubation, cells were washed with HBSS three times and continued for fluorescence microscopy (Leica, DM-2500, Leica Microsystems). Staining of MitoSOX was visualized using Red filter."}, "[3]": {"system": "gastric mucosal primary cultured cells", "test": "Mitochondrial dehydrogenase activity (MTT reduction assay)", "assay_type": "cell-based, rat", "experimental": "Mitochondrial metabolic function was studied by observing the ability of mitochondrial dehydrogenases to reduce MTT ([3-(4,5-dimethylthiazol-2-yl)-2,5-diphenyl tetrazolium bromide]) into formazan dye (Pal, C; et al. Free Radic Biol Med, 49(2), 258-267; 2010). Equal number of gastric mucosal primary cultured cells were taken (10^6) in each well of a 12 well plate and were divided into three groups control, indomethacin treated (5 mM) and SEGA (50 μM) plus indomethacin (5 mM)-treated. After incubating for 16 hrs, cells were dissociated and centrifuged at 500×g for 5 min and the supernatant was then discarded. Cell pellet was reconstituted in fresh cell culture media. Equal number of cells (10^5 cells) in a final volume of 100 μl cell culture media from each group was then taken in 96 well plates in triplicates. MTT (0.1% final concentration) solution was added to each well of both control and experimental groups, mixed well and incubated for 3 hrs at 37° C. in a CO2 incubator. After the incubation, the culture medium was aspirated carefully and the insoluble formazan crystals at the bottom of the well were solubilized with 100 μl of MTT solubilization solution containing 10% Triton X-100 plus 0.1 N HCl in anhydrous isopropanol. The MTT reduction (absorbance of formazan dye) was measured at 570 nm."}, "[4]": {"system": "rats", "test": "Toxicity (death) after injection in rats", "assay_type": "in vivo", "conditions": "conclusion from in vivo experiments"}, "[5]": {"system": "indomethacin-induced gastric mucosal damage", "test": "Indomethacin-induced gastric mucosal damage (ulcer index, histology)", "assay_type": "in vivo, Sprague-Dwaley rats", "experimental": "Sprague-Dwaley rats (180-220 gm) were used for this study. Each group (control or experimental) of animals was maintained at 24±2° C. with 12 hrs lights and dark cycle. The animals were fasted for 24 hrs before the start of experiments. They were provided with water ad libitum to avoid food-induced increased acid secretion and its effect on gastric lesions. Gastric mucosal ulcer was developed by indomethacin as described (Pal, C; et al. Free Radic Biol Med, 49(2), 258-267; 2010, Biswas, K.; et al. J. Biol. Chem. 278:10993-11001; 2003, Bandyopadhyay, U.; et al. Life Sci. 71:2845-2865; 2002). Briefly, all the animals were divided into control, indomethacin and test compound group. Oral administration of indomethacin at a dose of 48 mg kg^−1 b.w was given to the fasted animals to induce gastric ulcer. […] Control group received vehicle only but no indomethacin. After 4 hrs of indomethacin treatment, the animals were sacrificed under proper euthanasia and stomachs were collected. The mucosal injury was scored as ulcer index as follows: 0=no pathology; 1=one pinhead ulcer. The sum of the total scores divided by the number of animals gave the ulcer index. All the in vivo studies were done in accordance with the institute animal ethical committee guidelines. To see the effect of SEGA on diclofenac induced gastric mucosal injury, gastric mucosal damage was developed by the oral administration of diclofenac (75 mg kg^−1) and the rest of the experiment was carried out in a similar way as described for indomethacin. Diclofenac produced pinhead ulcer like indomethacin and the mucosal injury was scored as ulcer index as described above. Ethanol-induced gastric mucosal injury was developed with oral administration of 1 ml of 50% ethanol (Banerjee, R. K. (2002) Life Sci 71, 2845-2865) and after 4 hrs the animals were sacrificed and cold-restrain stress induced mucosal injury was developed by immobilizing the animals at 4° C. for 3.5 hrs (Banerjee, R. K. (2002) Life Sci 71, 2845-2865, (2003) J Biol Chem 278, 10993-11001).\nStomach tissues from the animals of different groups were washed first washed several times with PBS (pH 7.4) and later fixed in 10% buffered formalin for 12 hrs at 25° C. The formalin-fixed tissues were then dehydrated and embedded in paraffin for preparing semi-thin sections (Maity, P.; et al. J. Biol. Chem. 283:14391-14401; 2008). The semi-thin sections were prepared using a microtome and taken over poly-L-lysine coated glass slide for hematoxylene-eosine staining. The stained sections were observed under microscope (Leica DM-2500, Germany) and were documented by high-resolution digital camera."}}, "data": [{"smiles": "O=C(NCCc1c[nH]c2ccc(O)cc12)c1cc(O)c(O)c(O)c1", "note": "[Compound 3a, 3,4,5-trihydroxy-N-(2-(5-hydroxy-1H-indol-3-yl)ethyl)benzamide]", "values": [{"measurement": "depletion of mitochondrial thiol", "setting": "[1]", "result": "protects"}, {"measurement": "oxidation of mitochondrial protein (protein carbonyl formation)", "setting": "[1]", "result": "protects"}, {"measurement": "peroxidation of mitochondrial lipid", "setting": "[1]", "result": "protects"}, {"measurement": "mitochondrial superoxides (mitoSOX)", "setting": "[2]", "result": "restores all the NSAIDs-induced mitochondrial dysfuctions"}, {"measurement": "toxicity as established by MTT reduction assay", "setting": "[3]", "result": "non toxic molecule"}, {"measurement": "mitochondrial dehydrogenase activity (MTT reduction)", "setting": "[3]; SEGA 50 μM plus indomethacin 5 mM, 16 hrs", "result": "restores all the NSAIDs-induced mitochondrial dysfuctions"}, {"measurement": "toxicity in rats", "setting": "[4]", "result": "nontoxic molecule"}, {"measurement": "Gastric mucosal damage (ulcer index)", "setting": "[5]; compound 6.9 mg kg^−1 intraperitoneally before indomethacin 48 mg kg^−1 oral, rats", "result": "30 ± 3"}, {"measurement": "protection, indomethacin-induced gastric mucosal injury", "setting": "[5]; dose 1 mg kg^−1 i.p.", "result": 17, "unit": "%"}, {"measurement": "protection, indomethacin-induced gastric mucosal injury", "setting": "[5]; dose 3 mg kg^−1 i.p.", "result": 28, "unit": "%"}, {"measurement": "protection, indomethacin-induced gastric mucosal injury", "setting": "[5]; dose 5 mg kg^−1 i.p.", "result": 45, "unit": "%"}, {"measurement": "protection, indomethacin-induced gastric mucosal injury", "setting": "[5]; dose 10 mg kg^−1 i.p.", "result": 62, "unit": "%"}, {"measurement": "protection, indomethacin-induced gastric mucosal injury", "setting": "[5]; dose 20 mg kg^−1 i.p.", "result": 82, "unit": "%"}, {"measurement": "protection, indomethacin-induced gastric mucosal injury", "setting": "[5]; dose 50 mg kg^−1 i.p.", "result": 94, "unit": "%"}, {"measurement": "ED50, prevention of indomethacin-induced gastric mucosal damage", "setting": "[5]; intraperitoneal, rats, listed as SEGA (3a)", "result": 6.9, "unit": "mg/kg"}, {"measurement": "histology of gastric mucosal tissue (haematoxylin-eosin)", "setting": "[5]; pretreated indomethacin-treated rats", "result": "could protect gastric mucosa"}]}]}
